These results are taken from the supplement of paper PMC12463676, “Small-molecule dissolution of stress granules by redox modulation benefits ALS models” (Nature Chemical Biology, 2025).

Compound in one experiment: NC(=O)CCCCC1CCSS1 [lipoamide]
Put plainly: thermal stability z-score vs DMSO; higher = more thermally stabilized by treatment. The settings on record: HeLa, lipoamide concentration 100 µM. The procedure:
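Cellular thermal proteome profiling in HeLa cells. Cells were treated with 100 µM lipoamide for 1 h, with or without 1 mM arsenate for a further 1 h, then heated to ten temperatures (37-66.3 °C), and soluble protein was quantified by TMT mass spectrometry relative to 0.1% DMSO controls. The thermal stability score (sum of log2 fold changes minus the abundance score) was transformed to a z-score; mean of n = 3 experiments.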

Compound in another experiment: O=[As]([O-])(O)O.[K+] [potassium arsenate]
The description is as above. The settings on record: HeLa; arsenate concentration 1 mM. As to the method:
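Cellular thermal proteome profiling in HeLa cells treated with 1 mM arsenate for 1 h (DMSO pretreatment), heated to ten temperatures (37-66.3 °C). Soluble protein was quantified by TMT mass spectrometry relative to DMSO controls; the thermal stability score was transformed to a z-score; mean of n = 3 experiments.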

Where [1] appears, read: arsenate co-treatment: 1 mM arsenate 1 h.
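Further: each temperature applied for 3 min, abundance score taken as mean log2 fold change at the two lowest temperatures, z-score obtained by mean subtraction and division by SD.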

UniProt Q8IUC6, sequence (Q8IUC6 whole entry): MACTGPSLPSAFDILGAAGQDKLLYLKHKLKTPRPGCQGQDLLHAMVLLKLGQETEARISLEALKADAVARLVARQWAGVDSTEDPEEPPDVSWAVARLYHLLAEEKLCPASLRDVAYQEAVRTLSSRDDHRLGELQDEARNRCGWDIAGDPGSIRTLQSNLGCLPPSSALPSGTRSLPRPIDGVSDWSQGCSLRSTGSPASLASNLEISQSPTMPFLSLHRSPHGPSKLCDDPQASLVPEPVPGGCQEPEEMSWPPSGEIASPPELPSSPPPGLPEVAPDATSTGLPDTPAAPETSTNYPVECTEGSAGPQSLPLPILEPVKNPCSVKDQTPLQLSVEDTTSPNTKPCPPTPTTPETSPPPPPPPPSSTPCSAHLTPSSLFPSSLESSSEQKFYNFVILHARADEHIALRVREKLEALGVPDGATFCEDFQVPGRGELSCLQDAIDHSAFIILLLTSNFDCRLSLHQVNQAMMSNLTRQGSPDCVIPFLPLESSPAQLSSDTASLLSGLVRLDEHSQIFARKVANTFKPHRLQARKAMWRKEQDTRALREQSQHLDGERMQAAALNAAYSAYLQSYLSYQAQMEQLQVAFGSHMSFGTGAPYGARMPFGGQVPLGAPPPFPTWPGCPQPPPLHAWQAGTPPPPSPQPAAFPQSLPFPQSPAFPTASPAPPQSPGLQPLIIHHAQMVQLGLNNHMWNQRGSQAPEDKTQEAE
UniProt Q14108, sequence (Q14108 whole entry): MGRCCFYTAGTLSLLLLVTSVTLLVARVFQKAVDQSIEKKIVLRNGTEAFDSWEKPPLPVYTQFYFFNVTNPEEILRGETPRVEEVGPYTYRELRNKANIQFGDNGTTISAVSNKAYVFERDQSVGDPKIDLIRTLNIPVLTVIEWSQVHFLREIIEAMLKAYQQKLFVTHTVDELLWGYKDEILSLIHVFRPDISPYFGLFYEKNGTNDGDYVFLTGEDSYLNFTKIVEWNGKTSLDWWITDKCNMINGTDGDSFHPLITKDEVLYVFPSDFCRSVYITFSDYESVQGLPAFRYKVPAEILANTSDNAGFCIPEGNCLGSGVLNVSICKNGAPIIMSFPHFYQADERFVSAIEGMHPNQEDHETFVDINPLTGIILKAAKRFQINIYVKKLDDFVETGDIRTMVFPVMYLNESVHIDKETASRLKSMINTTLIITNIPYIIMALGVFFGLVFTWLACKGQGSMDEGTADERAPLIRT
UniProt Q9H2C0, sequence (Q9H2C0 whole entry): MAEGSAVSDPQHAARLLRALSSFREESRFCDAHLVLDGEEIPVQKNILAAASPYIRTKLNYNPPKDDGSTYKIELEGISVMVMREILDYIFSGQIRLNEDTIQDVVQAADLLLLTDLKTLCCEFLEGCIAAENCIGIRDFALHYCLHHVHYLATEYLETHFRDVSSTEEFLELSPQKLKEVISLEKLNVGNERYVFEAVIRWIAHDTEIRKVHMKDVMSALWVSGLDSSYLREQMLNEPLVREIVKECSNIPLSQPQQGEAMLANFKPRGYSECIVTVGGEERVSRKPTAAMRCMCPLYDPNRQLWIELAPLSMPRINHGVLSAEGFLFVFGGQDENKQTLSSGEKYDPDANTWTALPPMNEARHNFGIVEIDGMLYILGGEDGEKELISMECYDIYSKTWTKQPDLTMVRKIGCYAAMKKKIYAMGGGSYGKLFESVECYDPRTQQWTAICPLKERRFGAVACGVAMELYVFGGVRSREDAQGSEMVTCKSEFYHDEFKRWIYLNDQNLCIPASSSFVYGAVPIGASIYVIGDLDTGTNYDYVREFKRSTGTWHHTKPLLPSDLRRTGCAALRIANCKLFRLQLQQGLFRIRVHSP
UniProt Q14318, sequence (Q14318 whole entry): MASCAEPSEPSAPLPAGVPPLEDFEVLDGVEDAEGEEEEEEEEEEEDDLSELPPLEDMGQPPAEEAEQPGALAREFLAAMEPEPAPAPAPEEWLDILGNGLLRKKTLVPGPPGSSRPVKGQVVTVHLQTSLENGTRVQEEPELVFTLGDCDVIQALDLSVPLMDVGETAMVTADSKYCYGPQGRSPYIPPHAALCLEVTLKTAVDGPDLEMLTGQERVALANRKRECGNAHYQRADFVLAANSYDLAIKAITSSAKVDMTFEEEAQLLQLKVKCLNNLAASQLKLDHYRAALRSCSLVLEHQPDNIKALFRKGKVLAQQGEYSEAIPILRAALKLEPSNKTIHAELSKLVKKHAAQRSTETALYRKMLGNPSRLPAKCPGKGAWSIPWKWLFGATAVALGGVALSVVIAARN
UniProt Q13490, sequence (Q13490 whole entry): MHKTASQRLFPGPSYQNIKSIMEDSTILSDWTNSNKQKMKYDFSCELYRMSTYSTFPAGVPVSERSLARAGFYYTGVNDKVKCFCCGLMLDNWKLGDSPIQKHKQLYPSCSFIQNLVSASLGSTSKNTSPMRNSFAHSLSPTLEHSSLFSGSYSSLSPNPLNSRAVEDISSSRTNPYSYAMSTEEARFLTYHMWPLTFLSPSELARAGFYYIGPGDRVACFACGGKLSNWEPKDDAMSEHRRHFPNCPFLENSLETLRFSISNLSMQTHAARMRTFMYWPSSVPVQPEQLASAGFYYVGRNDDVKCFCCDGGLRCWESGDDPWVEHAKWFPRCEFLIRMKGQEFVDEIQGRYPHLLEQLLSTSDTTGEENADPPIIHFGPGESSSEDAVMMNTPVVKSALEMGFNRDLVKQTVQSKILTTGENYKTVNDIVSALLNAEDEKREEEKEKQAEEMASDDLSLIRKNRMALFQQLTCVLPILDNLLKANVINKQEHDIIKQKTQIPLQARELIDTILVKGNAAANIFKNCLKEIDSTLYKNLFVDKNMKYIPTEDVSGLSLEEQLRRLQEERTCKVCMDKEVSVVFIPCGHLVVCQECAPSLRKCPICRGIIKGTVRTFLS
UniProt Q6P3W7, sequence (Q6P3W7 whole entry): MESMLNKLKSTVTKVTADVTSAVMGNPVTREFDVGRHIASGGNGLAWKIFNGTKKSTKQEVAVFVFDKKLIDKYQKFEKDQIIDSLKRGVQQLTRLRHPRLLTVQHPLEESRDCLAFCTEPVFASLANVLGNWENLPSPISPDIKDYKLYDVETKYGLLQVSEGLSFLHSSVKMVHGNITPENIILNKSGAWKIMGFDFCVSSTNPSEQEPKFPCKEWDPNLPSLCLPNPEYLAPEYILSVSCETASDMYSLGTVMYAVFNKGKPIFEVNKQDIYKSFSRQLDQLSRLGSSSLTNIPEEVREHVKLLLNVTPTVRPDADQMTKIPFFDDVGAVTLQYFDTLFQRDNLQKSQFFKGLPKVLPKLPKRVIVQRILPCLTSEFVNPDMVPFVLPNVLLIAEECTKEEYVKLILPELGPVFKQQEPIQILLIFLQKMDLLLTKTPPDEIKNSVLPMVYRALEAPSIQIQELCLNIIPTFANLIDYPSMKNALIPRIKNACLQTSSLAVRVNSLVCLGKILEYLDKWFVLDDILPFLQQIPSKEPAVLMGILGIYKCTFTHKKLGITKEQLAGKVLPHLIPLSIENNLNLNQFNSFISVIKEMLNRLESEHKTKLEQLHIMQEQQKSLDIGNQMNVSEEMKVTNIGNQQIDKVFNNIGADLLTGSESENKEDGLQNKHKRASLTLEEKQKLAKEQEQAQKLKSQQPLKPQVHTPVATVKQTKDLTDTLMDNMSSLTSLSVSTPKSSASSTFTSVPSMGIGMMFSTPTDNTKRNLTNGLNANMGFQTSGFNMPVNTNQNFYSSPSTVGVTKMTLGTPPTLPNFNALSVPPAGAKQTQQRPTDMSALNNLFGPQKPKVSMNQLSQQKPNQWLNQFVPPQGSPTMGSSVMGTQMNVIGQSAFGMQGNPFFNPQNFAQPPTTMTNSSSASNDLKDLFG
UniProt Q86WP2, sequence (Q86WP2 whole entry): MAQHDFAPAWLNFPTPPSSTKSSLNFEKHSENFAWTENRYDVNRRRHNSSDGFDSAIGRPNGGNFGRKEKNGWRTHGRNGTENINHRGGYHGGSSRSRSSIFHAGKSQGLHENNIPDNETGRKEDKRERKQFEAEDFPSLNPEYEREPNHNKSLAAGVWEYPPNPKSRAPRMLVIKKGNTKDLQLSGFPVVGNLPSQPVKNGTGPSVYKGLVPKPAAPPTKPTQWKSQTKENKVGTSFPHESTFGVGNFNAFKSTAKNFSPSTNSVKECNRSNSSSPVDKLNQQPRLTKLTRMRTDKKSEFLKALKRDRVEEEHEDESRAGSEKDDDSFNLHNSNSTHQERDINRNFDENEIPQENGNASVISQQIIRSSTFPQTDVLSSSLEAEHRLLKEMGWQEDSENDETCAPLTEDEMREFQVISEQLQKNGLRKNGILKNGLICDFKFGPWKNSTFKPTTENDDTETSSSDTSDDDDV
UniProt Q9ULG6, sequence (Q9ULG6 whole entry): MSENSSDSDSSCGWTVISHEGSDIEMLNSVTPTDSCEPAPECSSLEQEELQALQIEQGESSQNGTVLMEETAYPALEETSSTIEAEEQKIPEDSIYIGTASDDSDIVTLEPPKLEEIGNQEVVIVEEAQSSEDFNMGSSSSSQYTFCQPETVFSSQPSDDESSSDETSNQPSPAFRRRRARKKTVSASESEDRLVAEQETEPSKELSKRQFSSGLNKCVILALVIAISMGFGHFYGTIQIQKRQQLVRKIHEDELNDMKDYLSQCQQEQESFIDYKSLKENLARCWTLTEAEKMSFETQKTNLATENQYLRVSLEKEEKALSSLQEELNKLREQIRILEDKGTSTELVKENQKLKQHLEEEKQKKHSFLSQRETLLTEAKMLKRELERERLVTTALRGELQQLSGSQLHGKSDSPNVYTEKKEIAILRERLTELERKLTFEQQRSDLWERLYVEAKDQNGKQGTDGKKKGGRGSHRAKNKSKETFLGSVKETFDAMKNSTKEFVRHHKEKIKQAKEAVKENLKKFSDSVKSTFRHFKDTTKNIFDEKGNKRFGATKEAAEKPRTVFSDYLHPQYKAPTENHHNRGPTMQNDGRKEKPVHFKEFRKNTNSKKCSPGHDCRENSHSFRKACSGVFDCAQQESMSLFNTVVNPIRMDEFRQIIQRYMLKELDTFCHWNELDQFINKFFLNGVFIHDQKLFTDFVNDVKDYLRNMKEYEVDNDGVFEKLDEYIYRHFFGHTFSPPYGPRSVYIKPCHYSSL

Turning to RMND5A (UniProt Q9H871), the values for the thermal stability z-score in the experiment with lipoamide (setting [1]), with lipoamide (arsenate co-treatment: none) and in the experiment with potassium arsenate were 0.216, 0.0656 and 0.156, respectively.

As for TLE2 (UniProt Q04725), the thermal stability z-score with lipoamide (setting [1]) is -0.165; in the experiment with lipoamide (arsenate co-treatment: none) it was 0.842; with potassium arsenate, 0.141.

Turning to GPBP1 (UniProt Q86WP2), the values for the thermal stability z-score in the experiment with lipoamide (setting [1]), with lipoamide (arsenate co-treatment: none) and with potassium arsenate were -0.514, -0.441 and -0.111, respectively.

Consider PARS2 (UniProt Q7L3T8), for which the thermal stability z-score was -0.928 with lipoamide (setting [1]), -0.492 in the experiment with lipoamide (arsenate co-treatment: none) and -0.314 with potassium arsenate.

In the case of RTN3 (UniProt O95197), the thermal stability z-score in the experiment with lipoamide (setting [1]) worked out at 0.112; with lipoamide (arsenate co-treatment: none), 0.0244; with potassium arsenate, 0.525.

As to GOLM1 (UniProt Q8NBJ4), the thermal stability z-score was 0.000985 with lipoamide (setting [1]), -0.136 in the experiment with lipoamide (arsenate co-treatment: none) and -0.568 with potassium arsenate.

With TERF2IP (UniProt Q9NYB0), the thermal stability z-score in the experiment with lipoamide (setting [1]) is -0.302; in the experiment with lipoamide (arsenate co-treatment: none), 0.33; with potassium arsenate, -0.131.

Turning to TICAM1 (UniProt Q8IUC6), the thermal stability z-score with lipoamide (setting [1]) is -0.187; in the experiment with lipoamide (arsenate co-treatment: none) it was -0.204; in the experiment with potassium arsenate, -0.325.

Take ZMYM1 (UniProt Q5SVZ6): the results for the thermal stability z-score with lipoamide (setting [1]), with lipoamide (arsenate co-treatment: none) and with potassium arsenate were 0.0919, 0.0471 and -0.798, respectively.

Turning to CHML (UniProt P26374), the thermal stability z-score was 0.57 in the experiment with lipoamide (setting [1]), 0.276 in the experiment with lipoamide (arsenate co-treatment: none) and -0.161 with potassium arsenate.

GAN (UniProt Q9H2C0): the thermal stability z-score with lipoamide (setting [1]) is 0.0625; with lipoamide (arsenate co-treatment: none), -0.31; with potassium arsenate, -0.167.

As for PGP (UniProt A6NDG6), the thermal stability z-score is 0.339 with lipoamide (setting [1]), -0.0409 in the experiment with lipoamide (arsenate co-treatment: none) and -0.245 in the experiment with potassium arsenate.

LPCAT1 (UniProt Q8NF37): the thermal stability z-score with lipoamide (setting [1]) was -0.369; with lipoamide (arsenate co-treatment: none), -0.129; with potassium arsenate it was 0.149.

Consider MAML1 (UniProt Q92585), for which the thermal stability z-score was found to be 0.141 with lipoamide (setting [1]), 0.017 with lipoamide (arsenate co-treatment: none) and 1.03 with potassium arsenate.

Consider AP4E1 (UniProt Q9UPM8), for which the thermal stability z-score was -0.117 with lipoamide (setting [1]), -0.092 with lipoamide (arsenate co-treatment: none) and -0.068 with potassium arsenate.

On to CD320 (UniProt Q9NPF0), for which the thermal stability z-score with lipoamide (setting [1]) was determined as 1.65; with lipoamide (arsenate co-treatment: none), 0.874; in the experiment with potassium arsenate it was 1.01.

As for BIRC2 (UniProt Q13490), the values for the thermal stability z-score with lipoamide (setting [1]), with lipoamide (arsenate co-treatment: none) and with potassium arsenate were -0.731, -0.56 and -0.483, respectively.

Turning to SCARB2 (UniProt Q14108), the results for the thermal stability z-score with lipoamide (setting [1]), with lipoamide (arsenate co-treatment: none) and with potassium arsenate were 0.111, 0.346 and 0.368, respectively.

Consider GSTK1 (UniProt Q9Y2Q3), for which the thermal stability z-score with lipoamide (setting [1]) is -0.0293; with lipoamide (arsenate co-treatment: none), 0.351; with potassium arsenate, -0.0332.

On to FKBP8 (UniProt Q14318), for which the thermal stability z-score was -1.33 with lipoamide (setting [1]), -0.861 in the experiment with lipoamide (arsenate co-treatment: none) and 1.05 with potassium arsenate.

As to SCYL2 (UniProt Q6P3W7), the thermal stability z-score with lipoamide (setting [1]) is -0.369; in the experiment with lipoamide (arsenate co-treatment: none), -0.657; with potassium arsenate it was -0.414.

Turning to GALK1 (UniProt P51570), the figures for the thermal stability z-score in the experiment with lipoamide (setting [1]), in the experiment with lipoamide (arsenate co-treatment: none) and with potassium arsenate were -0.559, -0.412 and -0.534, respectively.

Take CCPG1 (UniProt Q9ULG6): the thermal stability z-score in the experiment with lipoamide (setting [1]) was -2.1; in the experiment with lipoamide (arsenate co-treatment: none) it was -2.44; in the experiment with potassium arsenate, 0.351.
